Results published in PubChem BioAssay (NCI).
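GI50 is the concentration that inhibits growth by half. At the TGI there is no net growth.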

Columns and labels:
Test in all cases: NCI anticancer screen, dose series, 384-well format
MCF7 breast = tested on: MCF7 breast
A549 NSCLC = tested on: A549 NSCLC
SNB-19 CNS = tested on: SNB-19 CNS
HL-60(TB) leukemia = tested on: HL-60(TB) leukemia
NCI/ADR-RES ovarian = tested on: NCI/ADR-RES ovarian
KM12 colon = tested on: KM12 colon
CCRF-CEM leukemia = tested on: CCRF-CEM leukemia
NCI-H226 lung = tested on: NCI-H226 lung
ACHN renal = tested on: ACHN renal
MOLT-4 leukemia = tested on: MOLT-4 leukemia
BT-549 breast = tested on: BT-549 breast
HS 578T breast = tested on: HS 578T breast
MALME-3M melanoma = tested on: MALME-3M melanoma
HCT-116 colon = tested on: HCT-116 colon
UO-31 renal = tested on: UO-31 renal
DU-145 prostate = tested on: DU-145 prostate
MDA-MB-468 breast = tested on: MDA-MB-468 breast
LOX IMVI melanoma = tested on: LOX IMVI melanoma
SW-620 colon = tested on: SW-620 colon
PC-3 prostate = tested on: PC-3 prostate
OVCAR-8 ovarian = tested on: OVCAR-8 ovarian
SK-OV-3 ovarian = tested on: SK-OV-3 ovarian
SR leukemia = tested on: SR leukemia
OVCAR-4 ovarian = tested on: OVCAR-4 ovarian
CAKI-1 renal = tested on: CAKI-1 renal
NCI-H322M lung = tested on: NCI-H322M lung
HOP-92 NSCLC = tested on: HOP-92 NSCLC
MDA-MB-435 melanoma = tested on: MDA-MB-435 melanoma
A498 renal = tested on: A498 renal
HOP-62 NSCLC = tested on: HOP-62 NSCLC
SN12C renal = tested on: SN12C renal
786-0 renal = tested on: 786-0 renal
RXF 393 renal = tested on: RXF 393 renal
U251 glioblastoma = tested on: U251 glioblastoma
IGROV1 ovarian = tested on: IGROV1 ovarian
NCI-H522 lung = tested on: NCI-H522 lung
COLO 205 colon = tested on: COLO 205 colon
RPMI-8226 leukemia = tested on: RPMI-8226 leukemia
SF-268 CNS = tested on: SF-268 CNS
SK-MEL-5 melanoma = tested on: SK-MEL-5 melanoma
OVCAR-5 ovarian = tested on: OVCAR-5 ovarian
NCI-H23 lung = tested on: NCI-H23 lung
MDA-MB-231 breast = tested on: MDA-MB-231 breast
T-47D breast = tested on: T-47D breast
SNB-75 CNS = tested on: SNB-75 CNS
K-562 leukemia = tested on: K-562 leukemia
HCC-2998 colon = tested on: HCC-2998 colon
SF-295 CNS = tested on: SF-295 CNS
SF-539 CNS = tested on: SF-539 CNS
EKVX NSCLC = tested on: EKVX NSCLC
M14 melanoma = tested on: M14 melanoma
UACC-257 melanoma = tested on: UACC-257 melanoma
NCI-H460 NSCLC = tested on: NCI-H460 NSCLC
SK-MEL-28 melanoma = tested on: SK-MEL-28 melanoma
OVCAR-3 ovarian = tested on: OVCAR-3 ovarian
TK-10 renal = tested on: TK-10 renal
HCT-15 colon = tested on: HCT-15 colon
HT29 colon = tested on: HT29 colon
UACC-62 melanoma = tested on: UACC-62 melanoma

## CCC[C@H](Nc1nc(-c2ccc(NC(=O)NCC)c(OC)c2)ncc1C)c1cccnc1
MCF7 breast
  GI50: 29.6 nM
  TGI: 1360 nM
A549 NSCLC
  GI50: 43.4 nM
  TGI: 17400 nM
SNB-19 CNS
  GI50: 35.3 nM
  TGI: 10300 nM
HL-60(TB) leukemia
  GI50: 16.5 nM
  TGI: 30.4 nM
NCI/ADR-RES ovarian
  GI50: 170 nM
  TGI: 426 nM
KM12 colon
  GI50: 26.4 nM
  TGI: 1180 nM
CCRF-CEM leukemia
  GI50: 20 nM
  TGI: 34.5 nM
NCI-H226 lung
  GI50: 26.9 nM
  TGI: 75.3 nM
ACHN renal
  GI50: 55 nM
  TGI: 15600 nM
MOLT-4 leukemia
  GI50: 19.7 nM
  TGI: 34.2 nM
BT-549 breast
  GI50: 22.7 nM
  TGI: 59 nM
HS 578T breast
  GI50: 18.7 nM
  TGI: 37.3 nM
MALME-3M melanoma
  GI50: 32 nM
  TGI: 15000 nM
HCT-116 colon
  GI50: 26.3 nM
  TGI: 74.5 nM
UO-31 renal
  GI50: 62.8 nM
  TGI: 15300 nM
DU-145 prostate
  GI50: 30.7 nM
  TGI: 91.6 nM
MDA-MB-468 breast
  GI50: 16.8 nM
  TGI: 33.4 nM
LOX IMVI melanoma
  GI50: 25.6 nM
  TGI: 67 nM
SW-620 colon
  GI50: 43.4 nM
  TGI: 16500 nM
PC-3 prostate
  GI50: 38.5 nM
  TGI: 16500 nM
OVCAR-8 ovarian
  GI50: 21.1 nM
  TGI: 49.2 nM
SK-OV-3 ovarian
  GI50: 34.8 nM
  TGI: 1500 nM
SR leukemia
  TGI: 16.1 nM
OVCAR-4 ovarian
  GI50: 48.6 nM
  TGI: 8480 nM
CAKI-1 renal
  GI50: 30 nM
  TGI: 14800 nM
NCI-H322M lung
  GI50: 40.8 nM
  TGI: 20600 nM
HOP-92 NSCLC
  GI50: 30.4 nM
  TGI: 650 nM
MDA-MB-435 melanoma
  GI50: 19.1 nM
  TGI: 38.2 nM
A498 renal
  GI50: 32.1 nM
  TGI: 479 nM
HOP-62 NSCLC
  GI50: 33.1 nM
  TGI: 1180 nM
SN12C renal
  GI50: 37.9 nM
  TGI: 10500 nM
786-0 renal
  GI50: 31.7 nM
  TGI: 97.5 nM
RXF 393 renal
  GI50: 16.4 nM
  TGI: 40.6 nM
U251 glioblastoma
  GI50: 25 nM
  TGI: 64.6 nM
IGROV1 ovarian
  GI50: 40.4 nM
  TGI: 12400 nM
NCI-H522 lung
  GI50: 17.6 nM
  TGI: 37.8 nM
COLO 205 colon
  GI50: 19.3 nM
  TGI: 41.7 nM
RPMI-8226 leukemia
  GI50: 18.2 nM
  TGI: 32.8 nM
SF-268 CNS
  GI50: 27.3 nM
  TGI: 169 nM
SK-MEL-5 melanoma
  GI50: 17.5 nM
  TGI: 36.5 nM
OVCAR-5 ovarian
  GI50: 798 nM
  TGI: 84800 nM
NCI-H23 lung
  GI50: 20.7 nM
  TGI: 51.6 nM
MDA-MB-231 breast
  GI50: 45.2 nM
  TGI: 17400 nM
T-47D breast
  GI50: 71.9 nM
  TGI: 14400 nM
SNB-75 CNS
  GI50: 33.4 nM
  TGI: 11300 nM
K-562 leukemia
  GI50: 20.3 nM
  TGI: 39.6 nM
HCC-2998 colon
  GI50: 22.9 nM
  TGI: 63 nM
SF-295 CNS
  GI50: 18.5 nM
  TGI: 43.1 nM
SF-539 CNS
  GI50: 18.3 nM
  TGI: 36.5 nM
EKVX NSCLC
  GI50: 43 nM
  TGI: 13300 nM
M14 melanoma
  GI50: 21.8 nM
  TGI: 63.6 nM
UACC-257 melanoma
  GI50: 74.5 nM
  TGI: 16400 nM
NCI-H460 NSCLC
  GI50: 17.8 nM
  TGI: 35.4 nM
SK-MEL-28 melanoma
  GI50: 95.6 nM
  TGI: 16200 nM
OVCAR-3 ovarian
  GI50: 19.5 nM
  TGI: 43 nM
TK-10 renal
  GI50: 47.3 nM
  TGI: 16700 nM
HCT-15 colon
  GI50: 24 nM
  TGI: 68.3 nM
HT29 colon
  GI50: 28.9 nM
  TGI: 12600 nM

## CO[C@H]1C[C@@H]2CC[C@@H](C)[C@@](O)(O2)C(=O)C(=O)N2CCCC[C@H]2C(=O)O[C@H]([C@H](C)C[C@@H]2CC[C@@H](OC(=O)C(C)(CO)CO)[C@H](OC)C2)CC(=O)[C@H](C)/C=C(\C)[C@@H](O)[C@@H](OC)C(=O)[C@H](C)C[C@H](C)/C=C/C=C/C=C/1C
MCF7 breast
  TGI: 10100 nM
A549 NSCLC
  TGI: 15400 nM
SNB-19 CNS
  GI50: 5960 nM
  TGI: 20200 nM
HL-60(TB) leukemia
  GI50: 1630 nM
  TGI: 3000 nM
NCI/ADR-RES ovarian
  GI50: 4890 nM
  TGI: 22500 nM
KM12 colon
  GI50: 2220 nM
  TGI: 17400 nM
NCI-H226 lung
  GI50: 1110 nM
  TGI: 4080 nM
ACHN renal
  GI50: 2310 nM
  TGI: 15100 nM
MOLT-4 leukemia
  TGI: 1540 nM
BT-549 breast
  TGI: 1700 nM
HS 578T breast
  TGI: 1740 nM
MALME-3M melanoma
  TGI: 3290 nM
HCT-116 colon
  GI50: 3230 nM
  TGI: 15500 nM
DU-145 prostate
  GI50: 1050 nM
  TGI: 15700 nM
MDA-MB-468 breast
  TGI: 2530 nM
LOX IMVI melanoma
  GI50: 1190 nM
  TGI: 11300 nM
SW-620 colon
  GI50: 11200 nM
  TGI: 23900 nM
PC-3 prostate
  GI50: 1160 nM
  TGI: 11800 nM
OVCAR-8 ovarian
  GI50: 791 nM
  TGI: 15900 nM
SK-OV-3 ovarian
  GI50: 11600 nM
  TGI: 27500 nM
SR leukemia
  TGI: 441 nM
OVCAR-4 ovarian
  GI50: 1530 nM
  TGI: 12600 nM
CAKI-1 renal
  GI50: 1260 nM
  TGI: 15100 nM
NCI-H322M lung
  GI50: 1320 nM
  TGI: 12700 nM
HOP-92 NSCLC
  GI50: 2750 nM
  TGI: 8390 nM
MDA-MB-435 melanoma
  GI50: 11400 nM
  TGI: 23600 nM
A498 renal
  TGI: 14500 nM
HOP-62 NSCLC
  GI50: 233 nM
  TGI: 13300 nM
SN12C renal
  GI50: 4560 nM
  TGI: 19200 nM
786-0 renal
  GI50: 148 nM
  TGI: 14200 nM
U251 glioblastoma
  GI50: 2220 nM
  TGI: 14000 nM
IGROV1 ovarian
  TGI: 5040 nM
NCI-H522 lung
  GI50: 2230 nM
  TGI: 11500 nM
COLO 205 colon
  GI50: 11200 nM
  TGI: 23300 nM
RPMI-8226 leukemia
  TGI: 1060 nM
SF-268 CNS
  GI50: 2810 nM
  TGI: 14100 nM
SK-MEL-5 melanoma
  GI50: 1630 nM
  TGI: 11400 nM
OVCAR-5 ovarian
  GI50: 12500 nM
  TGI: 25400 nM
NCI-H23 lung
  GI50: 1930 nM
  TGI: 15700 nM
MDA-MB-231 breast
  GI50: 1820 nM
  TGI: 7890 nM
T-47D breast
  TGI: 5110 nM
UACC-62 melanoma
  GI50: 1790 nM
  TGI: 15000 nM
HCC-2998 colon
  GI50: 1200 nM
  TGI: 11600 nM
SF-295 CNS
  TGI: 3620 nM
SF-539 CNS
  GI50: 1120 nM
  TGI: 15100 nM
M14 melanoma
  GI50: 5550 nM
  TGI: 19800 nM
UACC-257 melanoma
  GI50: 8320 nM
  TGI: 20300 nM
NCI-H460 NSCLC
  GI50: 404 nM
  TGI: 15500 nM
SK-MEL-28 melanoma
  GI50: 3040 nM
  TGI: 14700 nM
OVCAR-3 ovarian
  GI50: 867 nM
  TGI: 13900 nM
TK-10 renal
  GI50: 12000 nM
  TGI: 26300 nM
HCT-15 colon
  GI50: 473 nM
  TGI: 15000 nM
HT29 colon
  GI50: 2330 nM
  TGI: 12800 nM
